Laboratory results as given in article PMC8744835, “Sterically Hindered Quaternary Phosphonium Salts (QPSs): Antimicrobial Activity and Hemolytic and Cytotoxic Properties” (International Journal of Molecular Sciences, 2021).

Legend:
Chang liver cell line = assay: Cytotoxicity assay (Cytell Cell Imaging, DAPI/propidium iodide); assay type: cell-based, human; details: for IC50: Homo sapiens, Chang liver, read-out: IC50 (concentration that causes the death of 50% of the cells), Chang liver cells; for IC50 (concentration that causes the death of 50% of the cells): Chang liver cells
human erythrocytes = assay: Hemolytic activity; assay type: cell-based; details: red blood cells
Source text: An important characteristic when assessing the biological activity of new chemical compounds is their cytotoxic effect on eukaryotic cells. The ability of an investigated compound to cause the destruction of human erythrocytes illustrates its toxic effect on the internal environment. The hemolysis assay is a simple screening test that can help in the study of cytotoxicity in more complex models. Cell lines obtained from various human organs and tissues that allow for adequate estimation of the effects of new potential drugs on cell metabolism can serve as experimental models.
The hemolytic activity of the QPSs was estimated by comparing the optical density of a solution containing the test compound with that of blood at 100% hemolysis. The experiments were carried out as previously described.

[1] = tested on: Staphylococcus aureus ATCC 6538P FDA 209P; assay: Antimicrobial activity, serial dilution technique in Mueller–Hinton Broth 2; assay type: cell-based; details: average of three ± SD, - means non-active; for MIC / MBC: Staphylococcus aureus, Sa; for MIC: read-out: Minimum Inhibitory Concentration (MIC), Sa; for MBC: read-out: Minimum Bactericidal and Fungicidal Concentration (MBC, MFC), Sa
Method in brief: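 Using a broth serial dilution method in Mueller–Hinton Broth 2, S. aureus ATCC 6538P FDA 209P (3.0 × 10^5 cfu/mL) was exposed to compounds at 37 °C and observed daily over 5 days. MIC was the lowest concentration preventing growth; bacteriostatic absence of growth was also noted, with three replicate experiments.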

[2] = tested on: Enterococcus faecalis ATCC 2921; assay: as above; assay type: cell-based; details: average of three ± SD, - means non-active; for MBC / MIC: Enterococcus faecalis, ATCC2921, Ef; for MBC: read-out: Minimum Bactericidal and Fungicidal Concentration (MBC, MFC), Ef; for MIC: read-out: Minimum Inhibitory Concentration (MIC), Ef
Method in brief: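 Antibacterial activity against Enterococcus faecalis ATCC 2921 was assessed by serial dilution in Mueller–Hinton Broth 2 with a bacterial load of 3.0 × 10^5 cfu/mL. Cultures were incubated at 37 °C, with growth recorded every 24 h for 5 days, and the experiment was performed three times.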

[3] = tested on: methicillin-resistant S. aureus MRSA-1; assay: as above; assay type: cell-based, Staphylococcus aureus; details: - means non-active; for MIC / MBC: Staphylococcus aureus, MRSA; for MIC: read-out: Minimum Inhibitory Concentration (MIC), MRSA-1; for MBC: MRSA-1, read-out: Minimum Bactericidal and Fungicidal Concentration (MBC, MFC), MRSA-1
Method in brief: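 Antimicrobial activity against methicillin-susceptible Staphylococcus aureus MRSA-1, a hospital isolate from a chronic tonsillitis patient that is resistant to fluoroquinolones and beta-lactams, was determined by serial dilution in Mueller–Hinton Broth 2. The bacterial load was 3.0 × 10^5 cfu/mL, incubation was at 37 °C, and growth was recorded every 24 h for 5 days.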

[4] = tested on: Bacillus cereus ATCC 10702 NCTC 8035; assay: as above; assay type: cell-based; details: average of three ± SD, - means non-active; for MIC: read-out: Minimum Inhibitory Concentration (MIC), Bc
Method in brief: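 Compounds were serially diluted in Mueller–Hinton Broth 2 and inoculated with the Gram-positive strain Bacillus cereus ATCC 10702 NCTC 8035 at 3.0 × 10^5 cfu/mL, then incubated at 37 °C. Observations were taken every 24 h over 5 days in three repeat experiments. The MIC was the lowest concentration that stopped growth, with bacteriostatic absence of growth also noted.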

[5] = tested on: Escherichia coli ATCC 25922; assay: as above; assay type: cell-based; details: average of three ± SD, - means non-active; for MIC: Escherichia coli, ATCC25922, Ec, read-out: Minimum Inhibitory Concentration (MIC), Ec
Method in brief: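 Growth inhibition is scored in Mueller–Hinton Broth 2 dilution series seeded with 3.0 × 10^5 cfu/mL and held at 37 °C for up to 5 days. Values reported are MICs, the lowest concentration without growth.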

[6] = tested on: Escherichia coli ATCC 25922; assay: as above; assay type: cell-based; details: average of three ± SD, - means non-active; for MBC: Escherichia coli, ATCC25922, Ec, read-out: Minimum Bactericidal and Fungicidal Concentration (MBC, MFC), Ec
[7] = tested on: methicillin-resistant S. aureus MRSA-2; assay: as above; assay type: cell-based, Staphylococcus aureus; details: - means non-active; for MIC: read-out: Minimum Inhibitory Concentration (MIC), MRSA-2
Method in brief: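 Antimicrobial activity against methicillin-susceptible Staphylococcus aureus MRSA-2, a beta-lactam-resistant clinical isolate from a sinusitis patient at the Republican Clinical Hospital (Kazan), was assessed by serial dilution in Mueller–Hinton Broth 2. The inoculum was 3.0 × 10^5 cfu/mL. Cultures were incubated at 37 °C and read every 24 h for 5 days, in three repeat experiments.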

[8] = tested on: Pseudomonas aeruginosa ATCC 9027; assay: as above; assay type: cell-based; details: average of three ± SD, - means non-active; for MBC: read-out: Minimum Bactericidal and Fungicidal Concentration (MBC, MFC), Pa
[9] = tested on: Trichophyton mentagrophytes var. gypseum 1773; assay: Fungicidal activity, serial dilution technique; assay type: cell-based; details: Trichophyton mentagrophytes, Tm, average of three ± SD, - means non-active; for MBC: read-out: Minimum Bactericidal and Fungicidal Concentration (MBC, MFC), Tm; for MIC: read-out: Minimum Inhibitory Concentration (MIC), Tm
Method in brief: (§1)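 Growth inhibition was scored every 24 h across 5 days at 37 °C in a broth serial dilution series (Mueller–Hinton Broth 2, 3.0 × 10^5 cfu/mL load). Triplicate experiments; minimum inhibitory concentration recorded.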

[10] = tested on: Candida albicans ATCC 10231; assay: Fungicidal activity, serial dilution technique; assay type: cell-based; details: average of three ± SD, - means non-active; for MIC: Candida albicans, ATCC10231, Ca, read-out: Minimum Inhibitory Concentration (MIC), Ca
Method in brief: as §1

[11] = MRSA-1 (resistant to fluoroquinolones and beta-lactams)
[12] = Staphylococcus aureus, MRSA, MRSA-2 (resistant to beta-lactams)
[13] = Pseudomonas aeruginosa, ATCC9027, Pa

## CCC[P+](C(C)(C)C)(C(C)(C)C)C(C)(C)C [Compound 3a]
Chang liver cell line
  IC50: > 100 mg/L
Human erythrocytes
  HC50 (concentration that causes 50% hemolysis of erythrocytes): > 125 µg/mL

## CCCCCCCC[P+](C(C)(C)C)(C(C)(C)C)C(C)(C)C [Compound 8b]
[1]
  Minimum Bactericidal and Fungicidal Concentration (MBC, MFC), Sa: 31.3 mg/L
  Minimum Inhibitory Concentration (MIC), Sa: 31.3 mg/L
[2]
  MBC: 125 mg/L
Chang liver cell line
  IC50 (concentration that causes the death of 50% of the cells): > 100 mg/L
Human erythrocytes
  HC50 (concentration that causes 50% hemolysis of erythrocytes): > 125 µg/mL
[3]; [11]
  Minimum Inhibitory Concentration (MIC), MRSA-1: 31.3 mg/L

## CCCCCC[P+](C(C)(C)C)(C(C)(C)C)C(C)(C)C [Compound 6a]
[1]
  MIC: 125 ± 11 mg/L
Chang liver cell line
  IC50: > 100 mg/L
Human erythrocytes
  HC50 (concentration that causes 50% hemolysis of erythrocytes): > 125 µg/mL

## CCCCCCCC[P+](C(C)(C)C)(C(C)(C)C)C(C)(C)C [Compound 8a]
[1]
  MBC: 62.5 mg/L
[4]; Bacillus cereus, Bc
  MIC: 31.3 mg/L
[2]
  MIC: 62.5 mg/L
[5]
  MIC: 125 mg/L
Chang liver cell line
  IC50: > 100 mg/L
Human erythrocytes
  HC50 (concentration that causes 50% hemolysis of erythrocytes): > 125 µg/mL
[6]
  MBC: 125 mg/L
[7]; [12]
  MIC: 31.3 mg/L

## CCCCCCC[P+](C(C)(C)C)(C(C)(C)C)C(C)(C)C [Compound 7a]
[1]
  MIC: 62.5 ± 5.5 mg/L
[4]; Bacillus cereus, Bc
  MIC: 125 ± 10 mg/L
[2]
  MIC: 125 mg/L
Chang liver cell line
  IC50: > 100 mg/L
Human erythrocytes
  HC50 (concentration that causes 50% hemolysis of erythrocytes): > 125 µg/mL

## CCCCCCCCC[P+](C(C)(C)C)(C(C)(C)C)C(C)(C)C [Compound 9b]
[1]
  Minimum Bactericidal and Fungicidal Concentration (MBC, MFC), Sa: 15.6 mg/L
[4]
  Minimum Inhibitory Concentration (MIC), Bc: 31.3 mg/L
[2]
  Minimum Bactericidal and Fungicidal Concentration (MBC, MFC), Ef: 125 mg/L
  Minimum Inhibitory Concentration (MIC), Ef: 31.3 mg/L
[5]
  Minimum Inhibitory Concentration (MIC), Ec: 250 mg/L
Chang liver cell line
  IC50 (concentration that causes the death of 50% of the cells): > 100 mg/L
Human erythrocytes
  HC50 (concentration that causes 50% hemolysis of erythrocytes): > 125 µg/mL
[6]; Ec
  Minimum Bactericidal and Fungicidal Concentration (MBC, MFC), Ec: 250 mg/L
[7]; MRSA-2 (resistant to beta-lactams)
  Minimum Inhibitory Concentration (MIC), MRSA-2: 31.3 mg/L

## CCCCCCCCCCCCC[P+](C(C)(C)C)(C(C)(C)C)C(C)(C)C [Compound 13a, tri-tert-butyl(n-tridecyl)phosphonium]
[1]
  MIC: 0.2 ± 0.01 mg/L
  Minimum Bactericidal and Fungicidal Concentration (MBC, MFC), Sa: 0.5 ± 0.04 mg/L
[8]; Pa
  Minimum Inhibitory Concentration (MIC), Pa: 15.6 ± 1.3 mg/L
[8]; [13]
  MBC: 31.3 ± 2.4 mg/L
[4]; Bacillus cereus, Bc
  MIC: 0.9 ± 0.07 mg/L
[4]
  Minimum Bactericidal and Fungicidal Concentration (MBC, MFC), Bc: 7.8 ± 0.6 mg/L
[2]
  Minimum Inhibitory Concentration (MIC), Ef: 3.9 ± 0.3 mg/L
  MBC: 7.8 ± 0.6 mg/L
[5]
  MIC: 3.9 ± 0.02 mg/L
[6]
  MBC: 3.9 ± 0.2 mg/L
[9]
  MBC: 125 ± 10 mg/L
  MIC: 125 ± 10 mg/L
[10]
  Minimum Bactericidal and Fungicidal Concentration (MBC, MFC), Ca: 31.3 ± 2.2 mg/L
  MIC: 15.6 ± 1.2 mg/L
[7]; MRSA-2
  Minimum Bactericidal and Fungicidal Concentration (MBC, MFC), MRSA-2: 0.5 ± 0.03 mg/L
[7]; [12]
  MIC: 0.3 ± 0.02 mg/L
[3]; [11]
  MIC: 0.5 ± 0.04 mg/L
[3]
  MBC: 0.3 ± 0.02 mg/L

## CCCCCCCCCCCCCCC[P+](C(C)(C)C)(C(C)(C)C)C(C)(C)C [Compound 15a]
[1]
  MBC: 0.5 ± 0.03 mg/L
  MIC: 0.2 ± 0.01 mg/L
[8]; [13]
  MBC: 7.8 ± 0.6 mg/L
[8]; Pseudomonas aeruginosa, ATCC9027, Pa, read-out: Minimum Inhibitory Concentration (MIC), Pa
  MIC: 7.8 ± 0.7 mg/L
[4]; Bacillus cereus, Bc, read-out: Minimum Bactericidal and Fungicidal Concentration (MBC, MFC), Bc
  MBC: 15.6 ± 1.3 mg/L
[4]; Bacillus cereus, Bc
  MIC: 0.5 ± 0.03 mg/L
[2]
  Minimum Bactericidal and Fungicidal Concentration (MBC, MFC), Ef: 1.9 ± 0.1 mg/L
  MIC: 0.5 ± 0.03 mg/L
[5]
  Minimum Inhibitory Concentration (MIC), Ec: 1.9 ± 0.1 mg/L
[6]
  MBC: 3.9 ± 0.2 mg/L
[9]
  MBC: 62.5 ± 5.7 mg/L
  MIC: 62.5 ± 5.3 mg/L
[10]
  Minimum Bactericidal and Fungicidal Concentration (MBC, MFC), Ca: 3.9 ± 0.2 mg/L
  MIC: 1.9 ± 0.1 mg/L
[7]; [12]
  MIC: 0.5 ± 0.04 mg/L
[7]; Staphylococcus aureus, MRSA, MRSA-2, read-out: Minimum Bactericidal and Fungicidal Concentration (MBC, MFC), MRSA-2
  MBC: 0.5 ± 0.03 mg/L
[3]; [11]
  MIC: 0.5 ± 0.02 mg/L
[3]
  MBC: 0.5 ± 0.04 mg/L
